For assay [1], the system named is KM12-LUC cells. Nature of the assay: KM12-LUC cell proliferation experiment (CellTiter-Glo, 72 hours). In kind it is cell-based. The following applies: Homo sapiens; KM12-LUC cells expressing TPM3-NTRK1 fusion gene. The source says: Biological Test Example 3: KM12-LUC Cell Proliferation Experiment
Human colon cancer cell line KM12-LUC (LUC, stably expressing Luciferase) expressing TPM3-NTRK1 fusion gene was used to evaluate cellular activity of the compounds cellular level. The TRK fusion gene in KM12-LUC cells makes it independent on the stimulation of extracellular growth factor, sustainably self-activate and activate the downstream signal pathway associated with cell proliferation such as MAPK-ERK, PI3K-AKT, or the like. […] The method was as follows: On the first day, the cells were seeded into 384-well plates at 2,000 cells/well; on the second day, different concentrations of test compounds were added; and on the 5th day, CellTiter-Glo (Promega) was added to detect cellular potency, and 72 hours cell proliferation inhibition rate was calculated. Statistical analysis was carried out by Prism5 and the inhibition rate of the test compound were calculated, as shown in FIG. 1.
For orientation: Cellular ATP, detected with luciferase, serves as a proxy for viable cell number.

The target of assay [2] is T1, recombinant human TRKA (G667C) (Homo sapiens, UniProt P04629, G667C).
T1 construct: purchased SignalChem
T1 sequence (P04629 33-796 G667C): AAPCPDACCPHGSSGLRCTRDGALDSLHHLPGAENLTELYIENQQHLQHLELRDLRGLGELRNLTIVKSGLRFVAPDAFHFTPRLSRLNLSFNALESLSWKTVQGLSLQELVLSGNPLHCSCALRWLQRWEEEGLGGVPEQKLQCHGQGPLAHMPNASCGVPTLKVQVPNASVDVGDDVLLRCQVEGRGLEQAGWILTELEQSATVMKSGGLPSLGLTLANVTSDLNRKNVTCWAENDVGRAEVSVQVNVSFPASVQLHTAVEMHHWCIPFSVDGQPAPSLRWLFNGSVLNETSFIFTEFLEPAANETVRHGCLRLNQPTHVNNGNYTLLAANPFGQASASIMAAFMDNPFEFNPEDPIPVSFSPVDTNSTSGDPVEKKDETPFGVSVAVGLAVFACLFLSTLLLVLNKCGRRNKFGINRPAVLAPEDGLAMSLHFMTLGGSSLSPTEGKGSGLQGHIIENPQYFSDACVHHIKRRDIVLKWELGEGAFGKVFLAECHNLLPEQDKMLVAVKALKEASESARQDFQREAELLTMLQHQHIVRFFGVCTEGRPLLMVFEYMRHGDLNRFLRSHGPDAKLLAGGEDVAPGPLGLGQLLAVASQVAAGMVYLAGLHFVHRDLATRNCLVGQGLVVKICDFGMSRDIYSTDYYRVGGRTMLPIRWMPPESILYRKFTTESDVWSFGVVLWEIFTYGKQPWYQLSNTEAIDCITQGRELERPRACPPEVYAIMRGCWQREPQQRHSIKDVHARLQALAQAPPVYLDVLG
Put plainly: In vitro activity test on mutant TRKA (G667C) (HTRF KinEASE TK). The settings on record: 5.5 μM ATP, 30 min. In kind it is biochemical. The method, boiled down: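 HTRF KinEASE TK format with recombinant human TRKA G667C (0.026 ng/μL), 1 μM biotinylated TK substrate, 5.5 […] ATP, 5 mM MgCl2, 1 mM DTT, 1% DMSO; 30 min at room temperature. Detection overnight; 665/620 ratio gives % inhibition, IC50 from 4-parameter fit over 10 doses (1 μM–0.004 nM).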
For orientation: TR-FRET usually uses a lanthanide donor and a delayed reading to cut background.

In assay [3] the target is T2, ΔTRKA(G595R) (Homo sapiens, UniProt P04629, G595R, form not given).
T2 construct: NIH-3T3 cell line stably expressing ΔTRKA or ΔTRKA(G595R) was constructed by plasmid transfection
T2 sequence (P04629 440-796 G595R limits assumed, form open): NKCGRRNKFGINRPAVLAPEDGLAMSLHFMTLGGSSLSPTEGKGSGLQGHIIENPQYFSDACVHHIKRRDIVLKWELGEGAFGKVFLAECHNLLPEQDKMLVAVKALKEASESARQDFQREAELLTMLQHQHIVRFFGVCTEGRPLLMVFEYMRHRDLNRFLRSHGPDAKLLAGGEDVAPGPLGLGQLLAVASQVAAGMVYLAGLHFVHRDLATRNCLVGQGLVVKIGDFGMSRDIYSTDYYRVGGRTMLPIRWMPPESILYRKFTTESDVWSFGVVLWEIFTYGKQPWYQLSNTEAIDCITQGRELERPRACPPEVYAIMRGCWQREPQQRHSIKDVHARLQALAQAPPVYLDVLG
Put plainly: Detection of TRK kinase activity on cellular level by ELISA, ΔTRKA(G595R)/NIH-3T3 cells. In kind it is cell-based. The following applies: NIH-3T3 cells stably expressing ΔTRKA(G595R), 2 hours treatment. As for the experimental part:
Biological Test Example 4: Detection of TRK Kinase Activity on Cellular Level by ELISA
NIH-3T3 cell line stably expressing ΔTRKA or ΔTRKA(G595R) was constructed by plasmid transfection.
On the first day, cells were seeded into a 96-well cell culture plate, 10000 cells/well in the medium (DMEM+10% FBS). On the second day, different concentrations of test compounds were added to treat cells for 2 hours, then the cell culture plate was placed on ice; and the supernatant was removed and washed with pre-cooled PBS once. The cells were lysed with NP40 lysis buffer containing protease and phosphatase inhibitor, transferred to an antibody pre-coated plate, and sealed to incubate overnight at 4° C. The remaining steps were proceeded according to the method provided in the ELISA kit (eg, as described in R&D DYC2578-2), results were shown in Table 2.
(In an ELISA, binding on a coated surface is turned into a signal by an enzyme label.)

The target of assay [4] is T3, Recombinant human TRKB (Homo sapiens, UniProt Q16620).
T3 construct: purchased Carna Biosciences
T3 sequence (Q16620 32-822): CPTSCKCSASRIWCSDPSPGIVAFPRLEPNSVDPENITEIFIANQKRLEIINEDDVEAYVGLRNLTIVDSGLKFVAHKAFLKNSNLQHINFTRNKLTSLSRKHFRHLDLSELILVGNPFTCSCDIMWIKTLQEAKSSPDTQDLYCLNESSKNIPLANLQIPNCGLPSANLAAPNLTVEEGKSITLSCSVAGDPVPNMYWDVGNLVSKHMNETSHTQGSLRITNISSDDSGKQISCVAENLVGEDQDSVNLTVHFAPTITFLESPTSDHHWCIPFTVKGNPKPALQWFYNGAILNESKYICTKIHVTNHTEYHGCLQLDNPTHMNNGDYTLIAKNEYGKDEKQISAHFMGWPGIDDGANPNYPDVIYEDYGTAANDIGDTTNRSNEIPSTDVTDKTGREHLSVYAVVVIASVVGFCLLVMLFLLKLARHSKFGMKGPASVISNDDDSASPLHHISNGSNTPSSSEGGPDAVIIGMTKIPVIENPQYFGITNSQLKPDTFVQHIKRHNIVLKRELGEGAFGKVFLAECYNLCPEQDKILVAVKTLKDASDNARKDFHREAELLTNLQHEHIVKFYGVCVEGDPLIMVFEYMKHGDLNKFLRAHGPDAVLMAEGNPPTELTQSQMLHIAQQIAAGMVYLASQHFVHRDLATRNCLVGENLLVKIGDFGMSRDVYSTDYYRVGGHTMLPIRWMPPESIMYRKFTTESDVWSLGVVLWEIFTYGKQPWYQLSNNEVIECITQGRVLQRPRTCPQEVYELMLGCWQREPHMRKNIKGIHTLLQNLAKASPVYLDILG
Put plainly: In vitro activity test on TRKB kinase (HTRF KinEASE TK). Format: biochemical. The settings on record: 4.77 μM ATP, 50 min. The method, boiled down:
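Recombinant human TRKB (0.037 ng/μL) phosphorylated 1 μM biotinylated TK substrate at 4.77 μM ATP, 5 mM MgCl2, 1% DMSO, 50 min at room temperature; compounds 1 μM–0.05 nM. HTRF KinEASE detection overnight; 665/620 ratio converted to inhibition and IC50 from 4-parameter fit.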

In assay [5] the target is T4, recombinant human TRKA (G595R) (Homo sapiens, UniProt P04629, G595R).
T4 construct: purchased SignalChem
T4 sequence (P04629 33-796 G595R): as the sequence (P04629 33-796 G667C) above, with G563R, C635G counted along it
Put plainly: In vitro activity test on mutant TRKA (G595R) (HTRF KinEASE TK). The settings on record: 4.5 μM ATP, 30 min. Format: biochemical. The method, boiled down:
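HTRF KinEASE TK format: 0.12 ng/μL recombinant TRKA (G595R), 1 μM biotinylated TK substrate, 4.5 μM ATP, 5 mM MgCl2, 1 mM DTT, 1% DMSO, 30 min at room temperature; detection overnight. IC50 from 10-point 4-fold series (1 μM to 0.004 nM, duplicates), 665/620 ratio, 4-parameter fit.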

Assay [6] deals with T5, Recombinant human TRKC (Homo sapiens, UniProt Q16288).
T5 construct: purchased Carna Biosciences
T5 sequence (Q16288 32-839): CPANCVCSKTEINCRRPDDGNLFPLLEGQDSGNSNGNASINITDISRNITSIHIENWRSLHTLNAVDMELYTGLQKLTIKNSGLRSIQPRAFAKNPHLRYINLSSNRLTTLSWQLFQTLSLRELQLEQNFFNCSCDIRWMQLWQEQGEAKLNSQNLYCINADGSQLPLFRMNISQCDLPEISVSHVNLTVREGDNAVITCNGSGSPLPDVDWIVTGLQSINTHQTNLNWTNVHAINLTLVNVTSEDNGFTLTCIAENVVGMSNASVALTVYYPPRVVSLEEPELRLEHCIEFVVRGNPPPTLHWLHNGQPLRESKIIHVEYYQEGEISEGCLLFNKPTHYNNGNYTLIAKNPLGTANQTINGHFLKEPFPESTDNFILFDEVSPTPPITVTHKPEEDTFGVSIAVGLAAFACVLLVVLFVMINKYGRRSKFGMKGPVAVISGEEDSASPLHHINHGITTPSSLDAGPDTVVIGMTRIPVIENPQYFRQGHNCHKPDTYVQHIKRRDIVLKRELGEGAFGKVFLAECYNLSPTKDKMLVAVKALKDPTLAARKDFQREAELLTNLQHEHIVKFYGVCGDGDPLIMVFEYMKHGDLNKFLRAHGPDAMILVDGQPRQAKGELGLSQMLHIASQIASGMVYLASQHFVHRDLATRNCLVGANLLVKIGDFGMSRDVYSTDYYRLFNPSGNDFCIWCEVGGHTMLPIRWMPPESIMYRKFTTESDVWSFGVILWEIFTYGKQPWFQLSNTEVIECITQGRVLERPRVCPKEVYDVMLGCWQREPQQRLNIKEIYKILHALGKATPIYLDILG
Put plainly: In vitro activity test on TRKC kinase (HTRF KinEASE TK). Format: biochemical. The following applies: 25.64 μM ATP, 40 min. Put shortly:
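Recombinant human TRKC (0.037 ng/μL) with 1 μM biotinylated TK substrate, 25.64 μM ATP, 5 mM MgCl2, 1 mM DTT, 40 min at room temperature; compound 1 μM to 0.05 nM, 1% DMSO. HTRF 665/620 ratio after overnight detection; IC50 from 4-parameter fit.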

Assay [7] deals with T6, Recombinant human TRKA (Homo sapiens, UniProt P04629).
T6 construct: purchased Carna Biosciences
T6 sequence (P04629 33-796): as the sequence (P04629 33-796 G667C) above, with C635G counted along it
Nature of the assay: In vitro activity test on TRKA kinase (HTRF KinEASE TK). In kind it is biochemical. The following applies: 14.68 μM ATP, 40 min. Put shortly:
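Reaction: 0.2 ng/μL TRKA, 1 μM biotinylated TK substrate, 14.68 μM ATP, 5 mM MgCl2, 1 mM DTT, 1% DMSO, 40 min at room temperature. Compounds tested at 1 μM to 0.05 nM (10-point, 3-fold, duplicate). HTRF 665/620 ratio converted to % inhibition versus no-compound control; IC50 by 4-parameter fit.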

One may read the IC50 as the concentration that gives 50% inhibition.

For the molecule `[2H]c1nc(-c2cnn(C3CCNCC3)c2)c2nc(N3C[C@@H](F)C[C@@H]3c3cc(F)ccc3F)ccc2n1` [Example 58], the IC50 is below 10 nM in assay [1]; below 1 nM in assay [2]; below 10 nM in assay [3]; below 10 nM in assay [4]; below 1 nM in assay [5]; below 1 nM in assay [6]. Further, in assay [7], the IC50 is below 1 nM.
For the molecule `Fc1ccc(F)c([C@H]2CCCN2c2ccc3nccc(-c4cnn(C5CCNCC5)c4)c3n2)c1` [Example 7, (R)-2-(2-(2,5-Difluorophenyl)pyrrolidin-1-yl)-8-(1-(piperidin-4-yl)-1H-pyrazol-4-yl)-1,5-naphthyridine], the IC50 in assay [1] was below 10 nM; in assay [2], below 1 nM; in assay [3], below 10 nM; in assay [4] it was below 100 nM; in assay [5], below 1 nM; in assay [6] it was below 50 nM. The IC50 in assay [7] is below 50 nM.

The record behind these values is patent US20220017512A1 (SHANGHAI ENNOVABIO PHARMACEUTICALS CO., LTD., priority 2018, published 2022).
